Results from ChEMBL document CHEMBL1201862, “PubChem BioAssay data set” (2004).
The source made the active and inactive calls.

How the values were obtained:
[1] = inhibitors of Vif binding to APOBEC3G peptide, primary screen, biochemical, TR-FRET, GST-Vif 1-94, biotin-A3G peptide, dose response retest (AID 1117319); format: functional;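 note: TR-FRET signal of purified GST-Vif binding a biotinylated A3G peptide; inhibitors lower the FRET signal by blocking Vif and A3G binding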
[2] = system: Streptococcus sp. 'group A'; experiment: growth inhibition of control SK(-) GAS strain, dose response, counter-screen for streptokinase expression inhibitor project, luminescence, kanamycin, BacTiterGlo, confirmation (AID 1900); format: functional, organism-based
Streptococcus = experiment: Group A Streptococcus viability loss, dose response, counter-screen for streptokinase expression inhibitor project, luminescence, BacTiterGlo (AID 1915); format: functional, organism-based;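 note: potency for reduction of bacterial viability or growth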
[3] = human group III sPLA2 inhibitors, dose response, biochemical, QFRET, IC50 (AID 743457);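 note: green fluorescence rise as the enzyme cleaves BODIPY PC-A2 in liposomes; potency for inhibition of the enzyme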
HEK293 = experiment: inhibitors of LMP1-driven NF-kB reporter, dose response, cell-based, HEK293, luciferase, cherry-pick (AID 588343); format: functional; conditions: Homo sapiens
[4] = A549 cell cytotoxicity, dose response, cytotoxicity control, plate reader, cherry-pick, antagonist series (AID 743412); format: functional, cell-based
[5] = LGR2 antagonists, dose response, cell-based, HEK293, CRE-luciferase reporter, cherry pick, set 2 (AID 743343); format: functional;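 note: transfected cells were stimulated with diluted bursicon conditioned medium after compound addition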
[6] = MC4R antagonists, dose response, counter-screen for LGR2 antagonist project, cell-based, plate reader, cherry pick (AID 743444); format: functional;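 note: transfected HEK 293 cells stimulated with alpha-MSH peptide; potency of inhibitors of the alpha-MSH evoked signal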
[7] = target: T1, RNA-editing ligase 1, mitochondrial (Trypanosoma brucei brucei, UniProt P86926); experiment: TbREL1 ligase inhibitors, dose response, biochemical, fluorescence, Trypanosoma brucei (AID 1117295); format: functional
T1 sequence (P86926 whole entry): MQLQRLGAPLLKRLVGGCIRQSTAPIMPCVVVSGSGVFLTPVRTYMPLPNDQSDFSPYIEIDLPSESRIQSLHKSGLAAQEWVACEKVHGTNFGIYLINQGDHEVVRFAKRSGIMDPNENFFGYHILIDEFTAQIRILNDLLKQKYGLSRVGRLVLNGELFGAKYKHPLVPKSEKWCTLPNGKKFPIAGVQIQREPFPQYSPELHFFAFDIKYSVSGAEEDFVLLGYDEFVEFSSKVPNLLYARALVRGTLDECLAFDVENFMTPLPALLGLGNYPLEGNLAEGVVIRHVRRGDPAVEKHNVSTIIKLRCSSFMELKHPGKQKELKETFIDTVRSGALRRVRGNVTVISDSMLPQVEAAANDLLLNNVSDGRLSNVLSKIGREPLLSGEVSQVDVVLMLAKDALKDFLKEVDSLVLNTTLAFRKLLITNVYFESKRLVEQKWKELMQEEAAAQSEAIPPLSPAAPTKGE

Ephrin type-A receptor 4 = Ephrin type-A receptor 4 (Mus musculus, UniProt Q03137); experiment: inhibitors of EphA4 binding to KYL peptide, primary screen, biochemical, colorimetric, mouse EphA4 (AID 689); format: functional
[8] = target: Luciferin 4-monooxygenase (Photinus pyralis, UniProt P08659); experiment: Counter Screen for Luciferase-based Assay Positives. [Related pubchem assays: 620, 618, 411 ]
HT-1080 = experiment: cytotoxicity in HT1080 fibrosarcoma cells, cell-based, fluorescence readout (AID 620); format: functional; conditions: Homo sapiens
Estrogen receptor beta = Estrogen receptor beta (Homo sapiens, UniProt Q92731);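 note: recombinant ER-beta bound to coactivator SRC1 peptide in presence of estradiol agonist; inhibitors block coactivator peptide binding and lower the FRET signal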
Cytochrome P450 1A2 = target: T2, Cytochrome P450 1A2 (Homo sapiens, UniProt P05177);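 note: PubChem cytochrome P450 panel assay, CYP1A2 panel member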
T2 sequence (P05177 whole entry): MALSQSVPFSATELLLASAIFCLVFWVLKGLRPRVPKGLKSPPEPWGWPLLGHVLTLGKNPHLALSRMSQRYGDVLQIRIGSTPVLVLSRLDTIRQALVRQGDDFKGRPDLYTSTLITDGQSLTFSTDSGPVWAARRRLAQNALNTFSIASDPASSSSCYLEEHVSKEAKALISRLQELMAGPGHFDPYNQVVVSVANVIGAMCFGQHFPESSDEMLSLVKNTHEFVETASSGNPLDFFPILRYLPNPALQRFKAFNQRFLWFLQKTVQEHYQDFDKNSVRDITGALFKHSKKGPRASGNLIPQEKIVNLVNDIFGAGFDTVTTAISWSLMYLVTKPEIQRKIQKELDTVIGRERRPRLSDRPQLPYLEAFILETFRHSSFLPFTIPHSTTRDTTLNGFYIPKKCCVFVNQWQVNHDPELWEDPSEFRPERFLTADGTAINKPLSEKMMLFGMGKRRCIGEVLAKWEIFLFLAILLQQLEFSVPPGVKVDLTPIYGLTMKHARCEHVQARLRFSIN

Cytochrome P450 3A4 = Cytochrome P450 3A4 (Homo sapiens, UniProt P08684);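 note: CYP3A4 tested as one member of a cytochrome P450 panel screen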
Cytochrome P450 2D6 = Cytochrome P450 2D6 (Homo sapiens, UniProt P10635);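 note: CYP2D6 member of a cytochrome P450 panel assay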
Chain of Cytochrome P450 2D6 (P10635 whole entry): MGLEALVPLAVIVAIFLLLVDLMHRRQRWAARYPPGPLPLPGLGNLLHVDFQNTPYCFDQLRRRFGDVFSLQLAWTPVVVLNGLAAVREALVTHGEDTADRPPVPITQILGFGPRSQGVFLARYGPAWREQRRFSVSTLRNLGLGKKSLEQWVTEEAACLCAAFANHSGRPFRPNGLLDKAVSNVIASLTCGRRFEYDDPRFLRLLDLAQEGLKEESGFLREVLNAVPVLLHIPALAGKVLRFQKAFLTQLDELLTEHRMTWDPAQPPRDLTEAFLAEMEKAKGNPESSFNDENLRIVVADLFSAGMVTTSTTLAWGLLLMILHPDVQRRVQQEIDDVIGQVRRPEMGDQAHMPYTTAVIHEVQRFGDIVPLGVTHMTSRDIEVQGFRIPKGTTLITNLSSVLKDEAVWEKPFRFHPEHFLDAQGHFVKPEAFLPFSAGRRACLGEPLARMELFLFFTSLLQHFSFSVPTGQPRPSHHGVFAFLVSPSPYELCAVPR

Chain of Estrogen receptor beta (Q92731 whole entry): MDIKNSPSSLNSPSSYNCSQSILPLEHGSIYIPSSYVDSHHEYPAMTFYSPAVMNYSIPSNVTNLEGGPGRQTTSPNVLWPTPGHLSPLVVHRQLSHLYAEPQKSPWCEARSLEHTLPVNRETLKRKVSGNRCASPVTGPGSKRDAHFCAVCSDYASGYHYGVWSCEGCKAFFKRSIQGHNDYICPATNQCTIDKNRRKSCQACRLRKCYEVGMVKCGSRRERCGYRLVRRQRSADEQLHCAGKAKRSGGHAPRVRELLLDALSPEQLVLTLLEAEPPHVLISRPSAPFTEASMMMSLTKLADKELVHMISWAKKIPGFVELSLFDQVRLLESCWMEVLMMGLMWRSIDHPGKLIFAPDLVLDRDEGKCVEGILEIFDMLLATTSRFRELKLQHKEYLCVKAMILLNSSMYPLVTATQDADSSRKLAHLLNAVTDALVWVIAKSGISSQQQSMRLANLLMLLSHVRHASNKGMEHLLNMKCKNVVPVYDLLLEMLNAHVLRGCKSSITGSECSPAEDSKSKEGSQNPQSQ
Chain of Luciferin 4-monooxygenase (P08659 whole entry): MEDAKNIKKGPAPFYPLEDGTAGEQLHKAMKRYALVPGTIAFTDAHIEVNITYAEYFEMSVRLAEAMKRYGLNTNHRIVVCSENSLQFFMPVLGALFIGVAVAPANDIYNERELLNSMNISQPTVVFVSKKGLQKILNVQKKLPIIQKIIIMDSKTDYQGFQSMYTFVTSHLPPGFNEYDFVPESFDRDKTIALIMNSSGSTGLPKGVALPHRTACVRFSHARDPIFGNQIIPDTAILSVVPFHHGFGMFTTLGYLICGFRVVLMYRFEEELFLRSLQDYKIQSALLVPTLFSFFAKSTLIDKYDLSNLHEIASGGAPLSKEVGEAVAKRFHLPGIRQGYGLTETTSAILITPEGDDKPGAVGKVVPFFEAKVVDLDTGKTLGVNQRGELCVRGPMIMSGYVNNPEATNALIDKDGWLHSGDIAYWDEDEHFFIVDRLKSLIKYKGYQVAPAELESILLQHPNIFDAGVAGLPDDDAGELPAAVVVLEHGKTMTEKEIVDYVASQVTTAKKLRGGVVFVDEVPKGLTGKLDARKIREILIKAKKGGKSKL
Chain of Ephrin type-A receptor 4 (Q03137 whole entry): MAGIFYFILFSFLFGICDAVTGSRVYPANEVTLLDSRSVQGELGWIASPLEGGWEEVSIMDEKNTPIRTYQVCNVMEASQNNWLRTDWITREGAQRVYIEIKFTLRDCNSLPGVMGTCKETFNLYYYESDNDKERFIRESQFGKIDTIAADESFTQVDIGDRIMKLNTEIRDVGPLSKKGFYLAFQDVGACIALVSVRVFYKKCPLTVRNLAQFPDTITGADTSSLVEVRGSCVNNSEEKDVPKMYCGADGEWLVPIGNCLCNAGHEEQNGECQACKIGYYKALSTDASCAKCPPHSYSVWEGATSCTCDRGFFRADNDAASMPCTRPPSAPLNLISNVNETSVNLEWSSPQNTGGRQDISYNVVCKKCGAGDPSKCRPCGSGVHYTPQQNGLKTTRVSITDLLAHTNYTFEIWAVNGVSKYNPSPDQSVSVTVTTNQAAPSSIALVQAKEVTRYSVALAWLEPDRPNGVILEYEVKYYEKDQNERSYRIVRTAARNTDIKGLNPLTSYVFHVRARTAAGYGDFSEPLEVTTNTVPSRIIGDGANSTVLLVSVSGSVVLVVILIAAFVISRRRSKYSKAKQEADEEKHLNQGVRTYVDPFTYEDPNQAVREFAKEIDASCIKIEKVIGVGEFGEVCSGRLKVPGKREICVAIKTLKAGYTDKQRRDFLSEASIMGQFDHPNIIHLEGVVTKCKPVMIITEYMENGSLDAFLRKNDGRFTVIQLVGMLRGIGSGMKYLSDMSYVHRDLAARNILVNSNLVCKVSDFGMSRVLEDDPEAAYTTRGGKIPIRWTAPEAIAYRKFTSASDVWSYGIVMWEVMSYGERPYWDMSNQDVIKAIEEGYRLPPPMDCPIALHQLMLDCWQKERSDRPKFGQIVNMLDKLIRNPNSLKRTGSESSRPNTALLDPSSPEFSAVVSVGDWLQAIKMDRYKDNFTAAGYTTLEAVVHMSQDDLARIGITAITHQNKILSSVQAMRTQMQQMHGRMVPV
Chain of Cytochrome P450 3A4 (P08684 whole entry): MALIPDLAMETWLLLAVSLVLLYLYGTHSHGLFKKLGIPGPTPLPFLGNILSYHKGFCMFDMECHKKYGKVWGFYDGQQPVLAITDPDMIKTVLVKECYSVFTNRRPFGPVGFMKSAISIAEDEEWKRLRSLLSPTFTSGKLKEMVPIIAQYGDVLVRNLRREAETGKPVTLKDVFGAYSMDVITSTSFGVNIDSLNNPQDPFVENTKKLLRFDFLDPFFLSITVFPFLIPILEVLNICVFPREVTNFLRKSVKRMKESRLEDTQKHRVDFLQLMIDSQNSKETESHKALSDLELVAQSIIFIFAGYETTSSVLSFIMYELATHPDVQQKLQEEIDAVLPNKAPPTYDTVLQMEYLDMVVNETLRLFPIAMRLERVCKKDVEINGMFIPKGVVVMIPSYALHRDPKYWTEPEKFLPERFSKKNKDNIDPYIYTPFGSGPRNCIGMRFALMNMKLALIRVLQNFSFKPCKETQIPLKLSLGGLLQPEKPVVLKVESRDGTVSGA

With O=C(NCc1ccc(Cl)cc1)c1ccccc1Oc1ccccc1 the IC50 [1] was > 100 µM (active).
With Cc1cc(C)c2nc(NNC(=O)c3ccc(S(=O)(=O)N4CCCCC4)cc3)sc2c1 the EC50 [2] was 1.92 µM (active), the EC50 (Streptococcus) was 4.91 µM (active) and the IC50 [3] was 19 µM (inactive).
With CC(=O)c1ccc(NC(=O)c2noc3c2CCC3)cc1 the AC50 (HEK293) was 1.92 µM (active), the AC50 [4] was > 52 µM (inactive) and the AC50 [5] was 2.77 µM (active). The AC50 [6] was 3.68 µM (active).
For COc1cc(CN(CCN(C)C)Cc2ccccc2)ccc1OCc1ccccc1, the IC50 [7] was > 96.6 µM (inactive).
For CC(=O)OC1(c2ccc(C)cc2)CN2CCC1c1ccccc12 (configuration not stated), the IC50 (Ephrin type-A receptor 4) was > 100 µM (not active).
With COCCn1c(C)cc(C(=O)CSc2nnc3ccccn23)c1C the AC50 (HEK293) was 2.88 µM (active), the EC50 [8] was < 0.2 µM (active) and the AC50 [4] was > 52 µM (inactive). For the same molecule, the AC50 [5] was 4.03 µM (active), the AC50 [6] was 3.66 µM (active) and the EC50 (HT-1080) was > 50 µM (not active).
In the case of COc1ccc(N2CCN(C(=O)CCCn3c(=O)[nH]c4ccsc4c3=O)CC2)cc1, the IC50 (Estrogen receptor beta) is reported as > 50 µM (not active).
In the case of S=C(Nc1cccc(Cl)c1)NC1CCCCC1, the AC50 (Cytochrome P450 1A2) is reported as 17.8 µM (inconclusive), the AC50 (Cytochrome P450 3A4) is reported as 15.8 µM (inconclusive) and the IC50 [1] is reported as > 100 µM (active). The AC50 (Cytochrome P450 2D6) was 44.7 µM (inconclusive).
For COc1cc(NC(=O)c2cccs2)c(C(=O)OCC(=O)NC(=O)NC(C)(C)C)cc1OC, the IC50 (Estrogen receptor beta) was > 50 µM (not active).
